Conditions: rat, in vivo
Text: To address some of these potential drawbacks, as described above, high resolution white light and multispectral (700 and 800 nm) fluorescence images may be captured off the block after every pass of the micro- or macrotome blade using an intraoperative fluorescence imaging system, thus vastly improving the amount of information captured throughout the specimen and decreasing total acquisition time. Generally, the process of fluorescent and high resolution white light data collection and subsequent co-registration and/or three-dimensional reconstruction, is referred to herein as cryofluorescence tomography or FHT.
To investigate the ability of FHT to study the physiology of the brain, XenoLight RediJect 2-Deoxy-D-glucose (2-DG, PerkinElmer, 750 nm excitation), a fluorescent glucose metabolism tracer, was injected into the intrathecal space of a rat. After 1.5 hours of distribution, the animal was sacrificed, the brain tissue excised, and the sample was cryopresevered in OCT. With each pass of the microtome blade (25 micron spacing), a high resolution white light and fluorescent image was acquired.
Further, to study the anatomy of ventricles and subarachnoid space, a fluorescent zwitterionic compound ZW800-1 (Curadel, LLC) was injected into the rat intrathecal space. This compound is not expected to cross into the brain parenchyma due to its chemical properties. […]

With “XenoLight RediJect 2-Deoxy-D-glucose [2-DG]” the “fluorescence signal in brain parenchyma” value was “taken up in the brain parenchyma”.
